Experiments:
hCA II = hCA II (Homo sapiens, UniProt P00918); test: CA inhibition assay (hydrolysis of 4-nitrophenylacetate); format: biochemical; conditions: 4-NPA hydrolysis; three independent assays, relative errors 5–10%
Description: (§1) Carbonic anhydrase has the ability to catalyse the hydrolysis of 4-NPA. […] More detailed operations and specific parameters are as reported earlier.

hCA IX = hCA IX (Homo sapiens, UniProt Q16790); test: as above; format: biochemical; conditions: 4-NPA hydrolysis; three independent assays, relative errors 5–10%
Description: as §1

Row | IC50 (hCA II) [nM] | IC50 (hCA IX) [nM] | melting point [°C] | SMILES
1 | 88.4 | 230 | – | NS(=O)(=O)c1ccc(-n2cc(-c3ccc(NC(=O)CCCC(=O)N[C@@H]4O[C@H](CO)[C@@H](O)[C@H](O)[C@H]4O)c(F)c3)nn2)cc1 [Compound 16j, N^1-(2-fluoro-4-(1-(4-sulfamoylphenyl)-1H-1,2,3-triazol-4-yl)phenyl)-N^5-((2R,3R,4S,5S,6R)-3,4,5-trihydroxy-6-(hydroxymethyl)tetrahydro-2H-pyran-2-yl)glutaramide]
2 | 100 | 120 | 230 to 233 | COc1cc(-c2cn(-c3ccc(S(N)(=O)=O)cc3)nn2)ccc1N [Compound 14f, 4-(4-(4-Amino-3-methoxyphenyl)-1H-1,2,3-triazol-1-yl)benzenesulfonamide]
3 | 102 | 58.2 | 222 to 225 | Nc1ccc(-c2cn(-c3ccc(S(N)(=O)=O)cc3)nn2)cc1[N+](=O)[O-] [Compound 14h, 4-(4-(4-Amino-3-nitrophenyl)-1H-1,2,3-triazol-1-yl)benzenesulfonamide]
4 | 90.8 | 100 | – | NS(=O)(=O)c1ccc(-n2cc(-c3ccc(NC(=O)CCC(=O)N[C@@H]4O[C@H](CO)[C@@H](O)[C@H](O)[C@H]4O)c(Cl)c3)nn2)cc1 [Compound 16d, N^1-(2-chloro-4-(1-(4-sulfamoylphenyl)-1H-1,2,3-triazol-4-yl)phenyl)-N^4-((2R,3R,4S,5S,6R)-3,4,5-trihydroxy-6-(hydroxymethyl)tetrahydro-2H-pyran-2-yl)succinamide]
5 | 37.9 | 111 | 264 to 266 | Cc1cc(-c2cn(-c3ccc(S(N)(=O)=O)cc3)nn2)ccc1N [Compound 14e, 4-(4-(4-Amino-3-methylphenyl)-1H-1,2,3-triazol-1-yl)benzenesulfonamide]
6 | 39.9 | 71 | 201 to 203 | Nc1ccc(-c2cn(-c3ccc(S(N)(=O)=O)cc3)nn2)cc1Cl [Compound 14d, 4-(4-(4-Amino-3-chlorophenyl)-1H-1,2,3-triazol-1-yl)benzenesulfonamide]
7 | 112 | 329 | – | COc1cc(-c2cn(-c3ccc(S(N)(=O)=O)cc3)nn2)ccc1NC(=O)CCC(=O)N[C@@H]1O[C@H](CO)[C@@H](O)[C@H](O)[C@H]1O [Compound 16f, N^1-(2-methoxy-4-(1-(4-sulfamoylphenyl)-1H-1,2,3-triazol-4-yl)phenyl)-N^4-((2R,3R,4S,5S,6R)-3,4,5-trihydroxy-6-(hydroxymethyl)tetrahydro-2H-pyran-2-yl)succinamide]
8 | 87 | 107 | 280 to 283 | Nc1c(F)cc(-c2cn(-c3ccc(S(N)(=O)=O)cc3)nn2)cc1F [Compound 14g, 4-(4-(4-Amino-3,5-difluorophenyl)-1H-1,2,3-triazol-1-yl)benzenesulfonamide]
9 | 70.2 | 150 | – | NS(=O)(=O)c1ccc(-n2cc(-c3ccc(NC(=O)CCC(=O)N[C@@H]4O[C@H](CO)[C@@H](O)[C@H](O)[C@H]4O)c(F)c3)nn2)cc1 [Compound 16c, N^1-(2-fluoro-4-(1-(4-sulfamoylphenyl)-1H-1,2,3-triazol-4-yl)phenyl)-N^4-((2R,3R,4S,5S,6R)-3,4,5-trihydroxy-6-(hydroxymethyl)tetrahydro-2H-pyran-2-yl)succinamide]
10 | 91 | 290 | – | NS(=O)(=O)c1ccc(-n2cc(-c3ccc(NC(=O)CCCC(=O)N[C@@H]4O[C@H](CO)[C@@H](O)[C@H](O)[C@H]4O)c(Cl)c3)nn2)cc1 [Compound 16k, N^1-(2-chloro-4-(1-(4-sulfamoylphenyl)-1H-1,2,3-triazol-4-yl)phenyl)-N^5-((2R,3R,4S,5S,6R)-3,4,5-trihydroxy-6-(hydroxymethyl)tetrahydro-2H-pyran-2-yl)glutaramide]
11 | 12.3 | 50.4 | 270 to 273 | Nc1cccc(-c2cn(-c3ccc(S(N)(=O)=O)cc3)nn2)c1 [Compound 14b, 4-(4-(3-Aminophenyl)-1H-1,2,3-triazol-1-yl)benzenesulfonamide]
12 | 177 | 352 | – | NS(=O)(=O)c1ccc(-n2cc(-c3cc(F)c(NC(=O)CCCC(=O)N[C@@H]4O[C@H](CO)[C@@H](O)[C@H](O)[C@H]4O)c(F)c3)nn2)cc1 [Compound 16n, N^1-(2,6-difluoro-4-(1-(4-sulfamoylphenyl)-1H-1,2,3-triazol-4-yl)phenyl)-N^5-((2R,3R,4S,5S,6R)-3,4,5-trihydroxy-6-(hydroxymethyl)tetrahydro-2H-pyran-2-yl)glutaramide]
13 | 19.3 | 54.4 | 256 to 258 | Nc1ccc(-c2cn(-c3ccc(S(N)(=O)=O)cc3)nn2)cc1 [Compound 14a, 4-(4-(4-Aminophenyl)-1H-1,2,3-triazol-1-yl)benzenesulfonamide]
14 | 129 | 216 | – | NS(=O)(=O)c1ccc(-n2cc(-c3ccc(NC(=O)CCCC(=O)N[C@@H]4O[C@H](CO)[C@@H](O)[C@H](O)[C@H]4O)c([N+](=O)[O-])c3)nn2)cc1 [Compound 16o, N^1-(2-nitro-4-(1-(4-sulfamoylphenyl)-1H-1,2,3-triazol-4-yl)phenyl)-N^5-((2R,3R,4S,5S,6R)-3,4,5-trihydroxy-6-(hydroxymethyl)tetrahydro-2H-pyran-2-yl)glutaramide]
15 | 25.6 | 161 | – | Cc1cc(-c2cn(-c3ccc(S(N)(=O)=O)cc3)nn2)ccc1NC(=O)CCCC(=O)N[C@@H]1O[C@H](CO)[C@@H](O)[C@H](O)[C@H]1O [Compound 16l, N^1-(2-methyl-4-(1-(4-sulfamoylphenyl)-1H-1,2,3-triazol-4-yl)phenyl)-N^5-((2R,3R,4S,5S,6R)-3,4,5-trihydroxy-6-(hydroxymethyl)tetrahydro-2H-pyran-2-yl)glutaramide]
16 | 149 | 544 | – | NS(=O)(=O)c1ccc(-n2cc(-c3cc(F)c(NC(=O)CCC(=O)N[C@@H]4O[C@H](CO)[C@@H](O)[C@H](O)[C@H]4O)c(F)c3)nn2)cc1 [Compound 16g, N^1-(2,6-difluoro-4-(1-(4-sulfamoylphenyl)-1H-1,2,3-triazol-4-yl)phenyl)-N^4-((2R,3R,4S,5S,6R)-3,4,5-trihydroxy-6-(hydroxymethyl)tetrahydro-2H-pyran-2-yl)succinamide]
17 | 10.1 | 300 | – | NS(=O)(=O)c1ccc(-n2cc(-c3cccc(NC(=O)CCCC(=O)N[C@@H]4O[C@H](CO)[C@@H](O)[C@H](O)[C@H]4O)c3)nn2)cc1 [Compound 16i, N^1-(3-(1-(4-sulfamoylphenyl)-1H-1,2,3-triazol-4-yl)phenyl)-N^5-((2R,3R,4S,5S,6R)-3,4,5-trihydroxy-6-(hydroxymethyl)tetrahydro-2H-pyran-2-yl)glutaramide]
18 | 15.7 | 40.4 | 245 to 247 | Nc1ccc(-c2cn(-c3ccc(S(N)(=O)=O)cc3)nn2)cc1F [Compound 14c, 4-(4-(4-Amino-3-fluorophenyl)-1H-1,2,3-triazol-1-yl)benzenesulfonamide]
19 | 26 | 270 | – | NS(=O)(=O)c1ccc(-n2cc(-c3ccc(NC(=O)CCCC(=O)N[C@@H]4O[C@H](CO)[C@@H](O)[C@H](O)[C@H]4O)cc3)nn2)cc1 [Compound 16h, N^1-(4-(1-(4-sulfamoylphenyl)-1H-1,2,3-triazol-4-yl)phenyl)-N^5-((2R,3R,4S,5S,6R)-3,4,5-trihydroxy-6-(hydroxymethyl)tetrahydro-2H-pyran-2-yl)glutaramide]
